This series deals with APOL1. Conditions: ASO.

Where “and” joins values, the source holds several entries; their conditions need not be identical. Equal entries are not always repeated. After the bases stand the sugars from the 5' end (letter, count) and the backbone: PS all phosphorothioate, else s phosphorothioate and o phosphodiester by linkage. Methylation of C is not given here. e = 2'-O-(2-methoxyethyl) (MOE); k = constrained ethyl (cEt); d = 2'-deoxy (DNA)

In the case of GTATTGCCAGCTAAGG (sugars k4 d9 k3, PS), the target mRNA inhibition by setting is: (A431, 0.0625 µM) 56%; (A431, 0.25 µM) 85%; (A431, 1 µM) 94%.

On to “GTATTGTTTTTGTGGG (sugars kdddddkekekddddd, PS)”, for which the target mRNA inhibition (A431, 2 µM) amounted to 77%.

As to “GTATTTCTTGATGTGG (sugars kkddddekekeddddd, PS)”, the target mRNA inhibition amounted to 58% (A431, 0.04 µM); 96% (A431, 1 µM); 96% (A431, 2 µM).

“GTATTTCTTGATGTGG (sugars kkkddddkekekdddd, PS)”: the target mRNA inhibition (A431, 2 µM) worked out at 73%.

Turning to GTCCTTACTGCAGTTT (sugars k4 d9 k3, PS), the target mRNA inhibition reads like this: (A431, 0.0625 µM) 60%; (A431, 0.25 µM) 83%; (A431, 1 µM) 93%.

“GTGAGTATTGTTTTTG (sugars kkddddkekekddddd, PS)” registered a target mRNA inhibition (A431, 2 µM) of 88%.

As for “GTTATATTTGATCCTC (sugars kekddddeekkddddd, PS)”, the target mRNA inhibition by setting is: (A431, 0.0156 µM) 37%; (A431, 0.04 µM) 31%; (A431, 0.0625 µM) 71%; (A431, 0.25 µM) 91%; (A431, 1 µM) 98%; (A431, 2 µM) 99%.

On to “GTTATATTTGATCCTC (sugars kkddddkdkdkddddd, PS)”, for which the target mRNA inhibition by setting is: (A431, 0.0156 µM) 9%; (A431, 0.0625 µM) 38%; (A431, 0.25 µM) 68%; (A431, 1 µM) 89%; (A431, 2 µM) 93%.

Consider “GTTATATTTGATCCTC (sugars kkkddddkekeddddd, PS)”, for which the target mRNA inhibition by setting is: (A431, 0.0156 µM) 32%; (A431, 0.0625 µM) 65%; (A431, 0.25 µM) 88%; (A431, 1 µM) 96%; (A431, 2 µM) 98%.

For the sequence “GTTATGAAATTATTGG (sugars k2 d4 e3 k2 d5, PS)”, the target mRNA inhibition (A431, 2 µM) was 54%.

As for “GTTATGAAATTATTGG (sugars k3 d4 k3 e1 d5, PS)”, the target mRNA inhibition reads like this: (A431, 0.0156 µM) 21%; (A431, 0.0625 µM) 56%; (A431, 0.25 µM) 85%; (A431, 1 µM) 93%; (A431, 2 µM) 96%.

Regarding “GTTATGAAATTATTGG (sugars kkkddddkdkdkdddd, PS)”, where the note is “A431, 2 µM”, the target mRNA inhibition was found to be 91%.

For the sequence “GTTATGAAATTATTGG (sugars kkkddddkekekdddd, PS)”, under “A431, 2 µM”, the target mRNA inhibition came out at 79%.

As to “GTTCAAAAGCAGCATT (sugars k3 d5 k3 d5, PS)”, the target mRNA inhibition (A431, 2 µM) came out at 90%.

In the case of GTTCAAAAGCAGCATT (sugars k4 d9 k3, PS), under “A431, 0.04 µM”, the target mRNA inhibition is 15% and 11%.

In turn, “GTTCAAAAGCAGCATT (sugars kekddddeekkddddd, PS)” had a target mRNA inhibition (A431, 2 µM) of 89%.

For the setting “A431, 2 µM”, “GTTCAAAAGCAGCATT (sugars kkddddekekeddddd, PS)” yielded a target mRNA inhibition of 82%.

Under “A431, 2 µM”, “GTTCAAAAGCAGCATT (sugars kkddddkekekddddd, PS)” returned a target mRNA inhibition of 60%.

Under “A431, 2 µM”, “GTTCAAAAGCAGCATT (sugars kkddddkekekkdddd, PS)” returned a target mRNA inhibition of 34%.

Under “A431, 2 µM”, “GTTCTAACTCTTGGGC (sugars kkddddkekekddddd, PS)” showed a target mRNA inhibition of 61%.

The sequence “GTTCTAACTCTTGGGC (sugars kkkddddkekekdddd, PS)” registered a target mRNA inhibition (A431, 2 µM) of 37%.

“GTTTTGTAAGTGCAAC (sugars kkddddkekekddddd, PS)”: the target mRNA inhibition (A431, 2 µM) was 88%.

In the case of GTTTTGTTGCACCCTC (sugars k4 d9 k3, PS), the target mRNA inhibition reads like this: (A431, 0.0625 µM) 65%; (A431, 0.25 µM) 82%; (A431, 1 µM) 95%.

For the sequence “TATATTTGATCCTCAA (sugars kdddddkekekddddd, PS)”, the target mRNA inhibition (A431, 2 µM) is 89%.

Sequence “TATCAGATGGGTACTT (sugars k3 d4 k3 e1 d5, PS)” yielded a target mRNA inhibition (A431, 2 µM) of 69%.

Take TATGGAATTGCAGATA (sugars k4 d9 k3, PS): the target mRNA inhibition was 8% (A431, 0.0625 µM); 46% (A431, 0.25 µM); 74% (A431, 1 µM).

With “TATTCTCATGGTACAG (sugars k2 d4 e3 k2 d5, PS)”, under “A431, 2 µM”, the target mRNA inhibition is 71%.

For the sequence “TATTCTCATGGTACAG (sugars kkkddddkekeddddd, PS)”, for the setting “A431, 2 µM”, the target mRNA inhibition turned out to be 68%.

As to “TCAGATGGGTACTTCT (sugars kkddddkekekddddd, PS)”, the target mRNA inhibition (A431, 2 µM) is 82%.

Take TCCTTATGCTTACTCC (sugars k4 d9 k3, PS): the target mRNA inhibition amounted to 50% (A431, 0.0625 µM); 80% (A431, 0.25 µM); 93% (A431, 1 µM).

With “TCTATTAGAGGGCTAG (sugars k2 d4 e3 k2 d5, PS)”, the target mRNA inhibition (A431, 2 µM) amounted to 67%.

In the case of “TCTCATGGTACAGGAG (sugars kkddddkekekkdddd, PS)”, for the setting “A431, 2 µM”, the target mRNA inhibition turned out to be 26%.

“TGAGTATTGTTTTTGT (sugars k3 d4 k3 e1 d5, PS)”: the target mRNA inhibition runs as follows: (A431, 0.0156 µM) 43%; (A431, 0.0625 µM) 69%; (A431, 0.25 µM) 88%; (A431, 1 µM) 94%; (A431, 2 µM) 95%.

“TGAGTATTGTTTTTGT (sugars kkkddddkekeddddd, PS)”: the target mRNA inhibition is 16% (A431, 0.0156 µM); 47% (A431, 0.0625 µM); 74% (A431, 0.25 µM); 90% (A431, 1 µM); 92% (A431, 2 µM).

As to TGGAAATGCCAAAGTC (sugars k4 d9 k3, PS), the target mRNA inhibition runs as follows: (A431, 0.0625 µM) 62%; (A431, 0.25 µM) 88%; (A431, 1 µM) 96%.

For the sequence “TGGGAATTATGGAATT (sugars k2 d4 e3 k2 d5, PS)”, the target mRNA inhibition (A431, 2 µM) was 63%.

TGGTTCAAAAGCAGCA (sugars k4 d9 k3, PS): the target mRNA inhibition is 60% (A431, 0.0625 µM); 84% (A431, 0.25 µM); 94% (A431, 1 µM).

In turn, “TGTAAGTGCAACCAAT (sugars kddddkekekeddddd, PS)” returned a target mRNA inhibition (A431, 2 µM) of 67%.

Turning to TGTCTTGCAAGGTTGT (sugars k4 d9 k3, PS), the target mRNA inhibition is 57% (A431, 0.0625 µM); 73% (A431, 0.25 µM); 84% (A431, 1 µM).

For the sequence TGTGTTTAGGCATTCA (sugars k4 d9 k3, PS), the target mRNA inhibition runs as follows: (A431, 0.25 µM) 61% and 86%; (A431, 1 µM) 65% and 86%.

“TGTTATATTTGATCCT (sugars kkddddekekeddddd, PS)”: the target mRNA inhibition worked out at 17% (A431, 0.0156 µM); 41% (A431, 0.0625 µM); 71% (A431, 0.25 µM); 85% (A431, 1 µM); 94% (A431, 2 µM).

As for TGTTCTAACTCTTGGG (sugars k4 d9 k3, PS), the target mRNA inhibition stood at 75% (A431, 0.0625 µM); 88% (A431, 0.25 µM); 94% (A431, 1 µM).

Take TGTTTACTTACCGGGT (sugars k4 d9 k3, PS): the target mRNA inhibition is 60% and 83% (A431, 0.0625 µM); 86% and 91% (A431, 0.25 µM); 91% and 93% (A431, 1 µM).

As to TGTTTAGGCATTCAGA (sugars k4 d9 k3, PS), the target mRNA inhibition was 59% and 37% (A431, 0.0625 µM); 86% and 64% (A431, 1 µM).

For “TTATACCAGTGTCTTC (sugars kkddddkekekkdddd, PS)”, the target mRNA inhibition (A431, 2 µM) was 68%.

As to “TTATATTTGATCCTCA (sugars k3 d4 k3 e1 d5, PS)”, the target mRNA inhibition (A431, 2 µM) is 96%.

The sequence “TTATATTTGATCCTCA (sugars kkddddkekekkdddd, PS)” had a target mRNA inhibition (A431, 2 µM) of 69%.

For the setting “A431, 2 µM”, “TTATGAAATTATTGGT (sugars k3 d4 k3 e1 d5, PS)” came in with a target mRNA inhibition of 85%.

Under “A431, 2 µM”, “TTATGAAATTATTGGT (sugars kkddddkdkdkddddd, PS)” had a target mRNA inhibition of 47%.

For the setting “A431, 2 µM”, “TTATTCTCATGGTACA (sugars k2 d4 e3 k2 d5, PS)” had a target mRNA inhibition of 48%.

Under “A431, 2 µM”, “TTATTCTCATGGTACA (sugars kkddddekekeddddd, PS)” returned a target mRNA inhibition of 51%.

For the sequence “TTCAGAATTTCCACTA (sugars kddddkekekeddddd, PS)”, the target mRNA inhibition (A431, 2 µM) is 62%.

On to TTCTATTAGAGGGCTA (sugars k4 d9 k3, PS), for which the target mRNA inhibition is 68% (A431, 0.04 µM); 51% and 40% (A431, 0.0625 µM); 81% and 72% (A431, 0.25 µM); 92% and 84% and 98% (A431, 1 µM).

For the sequence “TTCTATTAGAGGGCTA (sugars kkddddekekeddddd, PS)”, the target mRNA inhibition (A431, 2 µM) worked out at 85%.

Turning to “TTCTATTAGAGGGCTA (sugars kkddddkekekddddd, PS)”, the target mRNA inhibition (A431, 2 µM) is 53%.

As to “TTCTCATGGTACAGGA (sugars kkddddkekekddddd, PS)”, the target mRNA inhibition (A431, 2 µM) stood at 76%.

As for “TTTAAACTCAGGTGAC (sugars kdddddkekekddddd, PS)”, the target mRNA inhibition (A431, 2 µM) turned out to be 45%.

For TTTAGAAAGGACACGG (sugars k4 d9 k3, PS), the target mRNA inhibition (A431, 0.0625 µM) came to 42%; the target mRNA inhibition (A431, 0.25 µM) stood at 73%; the target mRNA inhibition (A431, 1 µM) worked out at 90%.

With “TTTATACCAGTGTCTT (sugars kkddddkdkdkddddd, PS)”, the target mRNA inhibition (A431, 2 µM) was 81%.

“TTTATACCAGTGTCTT (sugars kkddddkekekddddd, PS)” registered a target mRNA inhibition (A431, 2 µM) of 89%.

“TTTATACCAGTGTCTT (sugars kkddddkekekkdddd, PS)” displayed a target mRNA inhibition (A431, 2 µM) of 51%.

On to TTTGGGTCAAAAGCGA (sugars k4 d9 k3, PS), for which the target mRNA inhibition runs as follows: (A431, 0.25 µM) 66% and 85%; (A431, 1 µM) 83% and 93%.

Consider “TTTGTAAGTGCAACCA (sugars k2 d4 e3 k2 d5, PS)”, for which the target mRNA inhibition turned out to be 23% (A431, 0.0156 µM); 60% (A431, 0.0625 µM); 87% (A431, 0.25 µM); 98% (A431, 1 µM); 99% (A431, 2 µM).

On to “TTTTGTAAGTGCAACC (sugars k3 d4 k3 e1 d5, PS)”, for which the target mRNA inhibition is 38% (A431, 0.0156 µM); 38% and 24% (A431, 0.04 µM); 71% (A431, 0.0625 µM); 93% (A431, 0.25 µM); 97% and 98% and 94% (A431, 1 µM); 98% (A431, 2 µM).

(Values after the OligoGym collection.)
